Columns and labels:
[1] = system: 139 kinds of tested bacilli; assay: Susceptibility test of antibiotics to bacilli in mouth; format: cell-based
Protocol: (§1) At first, the minimal inhibitory concentration (hereinafter it is abbreviated to MIC) of minocycline for bacilli, especially Antinobacillus actinomycetemcomitans as main bacillus and the minimum period to optimum treatment effect with MIC were examined. […] Also, it was reported by Goodson et al. that the concentration more than MIC has to be sustained to inhibit growth of periodontal bacillus for at least 48 hours, especially at least 10 days for optimum treatment effect. Accordingly, local drug delivery should sustain the concentration of minocyclne in the periodontal pocket at least 4 μg/ml for at least 48 hours, and especially more than 10 days to optimize treatment effect. So the present local drug delivery was examined to learn if it coincided with the standard or not.

[2] = system: human gingival fibroblast; assay: Cytotoxic inhibition activity, [3H]-thymidine incorporation
Protocol: Human gingival fibroblast was cultivated and divided into 24 multi-well dish as much as 1×10 ^5 cell/well each. Medium was chant ed next day. After 3 days, medium was removed and washed with Hank's balanced salt solution (hereinafter it is abbreviated to HBSS). […] After 2 hours, said solutions were stood at 4° C. for 10 min using ice cold 5% Trichloroacetic acid (TCA) 3 ml. After washing 3 or 4 times with TCA, removed TCA, and dissolved gingival fibroblast by 0.5N-NaOH 1 ml at 37° C. for 30 min. 50 μl of said solution was taken, added 4 ml of cocktail solution to said solution and count per minute was measured by liquid scintillation counter.

[3] = system: human gingival fibroblast; assay: Rapid colorimetric assay for cellular growth survival (MTT)
Protocol: The floating solution obtained was devided into microtest plate well (obtained from Nuck, Denmark) as much as 2.5×10cell/well using the standard blood corpuscle calculation method so that MEM containing 10% fatal calf serum, peniciline 10 units/ml, streptomycine 100 μg/ml and fungizone 0.2 μl/ml became containing 2500, 5000, 10000, 15000, 20000, and 30000 cell per 200 ml and the resulting solution was incubated. Culture solution was changed next day. After 2 days, culture solution was removed and washed with HBSS. […] This was incubated in incubator at 37° C. […] As control group, MEM culture solution well was used every test. All test results were calculated as percentage unit to control group.

[4] = system: Actinobacillus actinomycetemcomitans; assay: Susceptibility test of antibiotics / MIC of minocycline; format: cell-based
Protocol: as §1

Question: For `CN(C)c1ccc(O)c2c1C[C@H]1C[C@H]3[C@H](N(C)C)C(=O)C(C(N)=O)=C(O)[C@@]3(O)C(=O)C1=C2O` [minocycline], which “tested bacilli that showed susceptibility” value [1] is on record?
Answer: The value was 98%.

Question: And the “growth of gingival fibroblast” value ([2]; 160 μg/ml to 2560 μg/ml)?
Answer: The value was “growth of gingival fibroblast was not inhibited”.

Question: And the “growth inhibition of gingival fibroblast” value ([2]; observation for 7 days)?
Answer: The value was “statistical singnificance about growth inhibitory of gingival fibroblast was not observed”.

Question: And the “difference in cell activity according to minocycline concentration” value [3]?
Answer: The value was “difference in cell activity according to concentration of minocycline was not observed”.

Question: And the “break point of minocycline concentration to periodontal treatment” value [4]?
Answer: The value was 2 to 4 µg/mL.

Question: And the MIC ([4]; Aggregatibacter actinomycetemcomitans, read-out: concentration of minocycline at which susceptibility is shown)?
Answer: The MIC was 2 to 4 µg/mL.

From patent US5599553A, “Local drug delivery film for periodontal treatment” (Dong Kook Pharmaceutical Co., Ltd., priority 1992, dated 1997)
